Measurements from ChEMBL document CHEMBL1201862, “PubChem BioAssay data set” (2004).
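Method: 48-hour compound exposure of cells in 96-well plates, five concentrations, linear interpolation of endpoints. GI50 = concentration required for 50% inhibition of growth.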 Activity calls are given as the source filed them. Rule as the data show it: active = GI50 up to about 1.1 µM and inactive = higher.

Assays:
Assay in all cases: NCI-60 cell line screen, 48 h
HCT-15 = test system: HCT-15
UO-31 = test system: UO-31
COLO 205 = test system: COLO 205
RPMI-8226 = test system: RPMI-8226
HL-60 = test system: HL-60
Malme-3M = test system: Malme-3M
SN12C = test system: SN12C
A498 = test system: A498
UACC-62 = test system: UACC-62
XF498 = test system: XF498
SNB-75 = test system: SNB-75
RXF 393 = test system: RXF 393
SK-MEL-2 = test system: SK-MEL-2
SF-539 = test system: SF-539
M19-MEL = test system: M19-MEL
LXFL 529 = test system: LXFL 529
HOP-18 = test system: HOP-18
MOLT-4 = test system: MOLT-4
M14 = test system: M14
SK-OV-3 = test system: SK-OV-3
HCC 2998 = test system: HCC 2998
OVCAR-5 = test system: OVCAR-5
SF-268 = test system: SF-268
KM12 = test system: KM12
DMS-114 = test system: DMS-114
CCRF-CEM = test system: CCRF-CEM
SK-MEL-5 = test system: SK-MEL-5
UACC-257 = test system: UACC-257
NCI-H522 = test system: NCI-H522
ACHN = test system: ACHN
SNB-19 = test system: SNB-19
U-251 = test system: U-251
SF-295 = test system: SF-295
SNB-78 = test system: SNB-78
DMS-273 = test system: DMS-273
K562 = test system: K562
HT-29 = test system: HT-29
NCI-H23 = test system: NCI-H23
OVCAR-4 = test system: OVCAR-4
NCI-H460 = test system: NCI-H460
RXF 631 = test system: RXF 631
CAKI-1 = test system: CAKI-1
786-0 = test system: 786-0
HOP-92 = test system: HOP-92
OVCAR-3 = test system: OVCAR-3
TK-10 = test system: TK-10
SK-MEL-28 = test system: SK-MEL-28
A549 = test system: A549
SW-620 = test system: SW-620
OVCAR-8 = test system: OVCAR-8
EKVX = test system: EKVX
HOP-62 = test system: HOP-62
IGROV-1 = test system: IGROV-1
SR = test system: SR
NCI-H226 = test system: NCI-H226
HCT-116 = test system: HCT-116
KM-20L2 = test system: KM-20L2
DLD-1 = test system: DLD-1
LOX IMVI = test system: LOX IMVI

Measured: GI50

Oc1cc(O)c(Oc2cccc(O)c2O)c(O)c1
inactive: UO-31 > 100 µM | COLO 205 > 100 µM | RPMI-8226 > 100 µM | HL-60 99.5 µM | Malme-3M > 100 µM | SN12C > 100 µM | A498 > 100 µM | UACC-62 35.6 µM | XF498 29.5 µM | SNB-75 45.8 µM | RXF 393 > 100 µM | SK-MEL-2 37.8 µM | SF-539 > 100 µM | M19-MEL 21.1 µM | LXFL 529 > 100 µM | HOP-18 > 100 µM | MOLT-4 > 100 µM | M14 > 100 µM | SK-OV-3 > 100 µM | HCC 2998 > 100 µM | OVCAR-5 > 100 µM | SF-268 > 100 µM | KM12 > 100 µM | DMS-114 57.7 µM | CCRF-CEM 33.3 µM | SK-MEL-5 18.6 µM | UACC-257 > 100 µM | NCI-H522 49.7 µM | ACHN > 100 µM | SNB-19 > 100 µM | U-251 > 100 µM | SF-295 > 100 µM | SNB-78 > 100 µM | DMS-273 > 100 µM | K562 35 µM | HT-29 > 100 µM | NCI-H23 > 100 µM | OVCAR-4 15.5 µM | NCI-H460 > 100 µM | RXF 631 > 100 µM | CAKI-1 > 100 µM | 786-0 42.6 µM | HOP-92 > 100 µM | OVCAR-3 73.3 µM | TK-10 > 100 µM | SK-MEL-28 > 100 µM | A549 > 100 µM | SW-620 55.6 µM | OVCAR-8 > 100 µM | EKVX > 100 µM | HOP-62 > 100 µM | IGROV-1 > 100 µM
> 100 µM: HCT-15

Cc1cccc(NC2=NC(=O)C(CC(=O)Nc3ccccc3Cl)S2)c1 (stereo not given)
> 100 µM: HCT-15
inactive: UO-31 > 100 µM | RPMI-8226 > 100 µM | HL-60 > 100 µM | Malme-3M > 100 µM | SR > 100 µM | SN12C > 100 µM | A498 > 100 µM | UACC-62 > 100 µM | XF498 95.1 µM | SNB-75 > 100 µM | RXF 393 > 100 µM | SK-MEL-2 > 100 µM | SF-539 > 100 µM | M19-MEL > 100 µM | NCI-H226 > 100 µM | HCT-116 > 100 µM | LXFL 529 > 100 µM | MOLT-4 > 100 µM | M14 > 100 µM | HCC 2998 > 100 µM | OVCAR-5 > 100 µM | SF-268 > 100 µM | DMS-114 > 100 µM | CCRF-CEM > 100 µM | SK-MEL-5 > 100 µM | UACC-257 > 100 µM | ACHN > 100 µM | SNB-19 > 100 µM | KM-20L2 > 100 µM | SF-295 > 100 µM | SNB-78 > 100 µM | DMS-273 > 100 µM | DLD-1 > 100 µM | K562 > 100 µM | HT-29 > 100 µM | NCI-H23 > 100 µM | LOX IMVI > 100 µM | OVCAR-4 > 100 µM | NCI-H460 > 100 µM | RXF 631 > 100 µM | CAKI-1 > 100 µM | 786-0 > 100 µM | HOP-92 > 100 µM | OVCAR-3 > 100 µM | TK-10 > 100 µM | SK-MEL-28 > 100 µM | A549 > 100 µM | SW-620 > 100 µM | OVCAR-8 > 100 µM | EKVX > 100 µM | IGROV-1 > 100 µM
